Measurements as given in US20220177947A1, “Compounds to Identify Beta-Lactamases, and Methods of Use Thereof” (priority 2019, published 2022).
Like-named read-outs stand apart in the source and are kept apart here.

Assays:
[1] = system: Enterobacteriaceae isolates; type: cell-based; conditions: for resistance in the isolates (in words): all Enterobacteriaceae isolates, excluding intrinsic resistance
Protocol: Urine culture, organism identification, AST, and ESBL confirmatory testing. Standard microbiological procedures were performed by the clinical laboratory as part of routine care for all urine samples used in this study, per the clinical laboratory's standard operating procedures. First, 1 μL or 10 μL of urine sample was plated on standard agar plates (blood agar and eosin methylene blue agar biplate), then visually inspected the next day for significant growth indicative of a UTI (≥10^4 CFU/mL cutoff applied). The MiscroScan WalkAway system (Beckman Coulter) was utilized for bacterial identification and AST of GNB and select GPB causing UTI. […] AST interpretations were based on CLSI's 2017 guidelines.

TEM-1 [2] = target: T1, TEM-1 (Escherichia coli, UniProt P62593); conditions: cited from earlier work
SHV-1 [3] = target: T2, SHV-1 (Klebsiella pneumoniae, UniProt P0AD64); conditions: cited from earlier work
TEM-1 [4] = target: T1, TEM-1; conditions: cited from earlier work; remark: listed apart in the source
B. cereus I = B. cereus I (Bacillus cereus, UniProt P00809); conditions: cited from earlier work
S. aureus PC1 = S. aureus PC1 (Staphylococcus aureus, UniProt P00807); conditions: cited from earlier work
SHV-1 [5] = target: T2, SHV-1; conditions: cited from earlier work; remark: listed apart in the source
[6] = system: E. coli clinical isolates; experiment: DETECT with β-lactamase inhibitors (clavulanic acid); type: cell-based; conditions: original score/inhibitor score, 30 min
Protocol: (§1) A solution of sodium clavulanate was prepared to 1 mg/400 μL in “buffer 1”, and 4 μL of this solution was added to both the sample and control well for each isolate tested, two min prior to addition of β-lactamase probe or acetonitrile to the sample and control well, respectively. […]

[7] = system: K. pneumoniae clinical isolates; experiment: as above; type: cell-based; conditions: original score/inhibitor score, 30 min
Protocol: as §1

T1 sequence (P62593 24-286 limits assumed): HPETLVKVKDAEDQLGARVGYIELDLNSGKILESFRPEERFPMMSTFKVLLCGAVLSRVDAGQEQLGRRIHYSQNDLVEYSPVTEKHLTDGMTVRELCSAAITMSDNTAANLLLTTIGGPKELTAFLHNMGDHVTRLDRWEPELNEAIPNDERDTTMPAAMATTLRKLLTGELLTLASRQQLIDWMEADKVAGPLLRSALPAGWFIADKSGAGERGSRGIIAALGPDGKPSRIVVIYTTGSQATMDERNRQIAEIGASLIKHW
T2 sequence (P0AD64 22-286): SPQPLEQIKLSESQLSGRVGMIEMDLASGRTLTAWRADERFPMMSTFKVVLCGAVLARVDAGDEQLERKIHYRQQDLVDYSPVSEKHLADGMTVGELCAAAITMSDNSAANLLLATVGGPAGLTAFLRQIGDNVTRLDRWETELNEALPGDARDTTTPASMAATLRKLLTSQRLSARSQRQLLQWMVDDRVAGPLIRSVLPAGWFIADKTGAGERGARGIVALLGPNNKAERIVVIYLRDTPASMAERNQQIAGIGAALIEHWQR
Chain of S. aureus PC1 (P00807 25-281): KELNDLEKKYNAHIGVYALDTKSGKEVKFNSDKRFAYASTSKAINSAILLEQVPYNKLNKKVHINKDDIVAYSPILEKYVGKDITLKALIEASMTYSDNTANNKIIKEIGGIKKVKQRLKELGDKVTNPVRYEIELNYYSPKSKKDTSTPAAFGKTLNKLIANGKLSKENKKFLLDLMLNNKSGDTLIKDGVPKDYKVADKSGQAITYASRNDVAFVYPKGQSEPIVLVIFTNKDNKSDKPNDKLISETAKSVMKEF
Chain of B. cereus I (P00809 28-306): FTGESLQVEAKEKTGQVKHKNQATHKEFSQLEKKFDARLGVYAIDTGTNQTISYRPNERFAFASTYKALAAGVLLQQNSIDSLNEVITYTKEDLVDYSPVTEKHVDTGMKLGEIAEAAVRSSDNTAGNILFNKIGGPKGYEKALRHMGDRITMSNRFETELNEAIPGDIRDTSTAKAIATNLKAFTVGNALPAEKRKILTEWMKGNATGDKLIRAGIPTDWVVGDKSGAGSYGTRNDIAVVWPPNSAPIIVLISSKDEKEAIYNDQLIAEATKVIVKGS

NC[C@H]1O[C@H](O[C@H]2[C@H](O)[C@@H](O[C@H]3O[C@H](CO)[C@@H](O)[C@H](N)[C@H]3O)[C@H](N)C[C@@H]2N)[C@H](N)C[C@@H]1O [tobramycin]
resistance identified, number of isolates ([1]; CTX-M-producing bacteria): 5
resistance identified, percent of isolates ([1]; CTX-M-producing bacteria): 45%
resistance identified, number of isolates ([1]; bacteria lacking CTX-Ms): 2
resistance identified, percent of isolates ([1]; bacteria lacking CTX-Ms): 2%

piperacillin/tazobactam
resistance in the isolates (in words) [1]: not detected

CO[C@@]1(NC(=O)Cc2cccs2)C(=O)N2C(C(=O)O)=C(COC(N)=O)CS[C@@H]21 [cefoxitin]
resistance in the isolates (in words) [1]: rare

CC1(C)[C@H](C(=O)O)N2C(=O)C[C@H]2S1(=O)=O [sulbactam]
turnover number (tn), inhibitor molecules to inactivate one β-lactamase enzyme (TEM-1 [2]): 10,000
turnover number (tn), inhibitor molecules to inactivate one β-lactamase enzyme (SHV-1 [3]): 13,000

O=C(O)[C@H]1/C(=C/CO)O[C@@H]2CC(=O)N21 [clavulanic acid]
IC50 fold lower than that for sulbactam (TEM-1 [4]): 60 fold
turnover number (tn), inhibitor molecules to inactivate one β-lactamase enzyme (B. cereus I): more than 16,000
turnover number (tn), inhibitor molecules to inactivate one β-lactamase enzyme (TEM-1 [2]): 160
turnover number (tn), inhibitor molecules to inactivate one β-lactamase enzyme (S. aureus PC1): one
IC50 fold lower than that for sulbactam (SHV-1 [5]): 580 fold
turnover number (tn), inhibitor molecules to inactivate one β-lactamase enzyme (SHV-1 [3]): 60
Times-change in DETECT score, with clavulanic acid ([6]; isolate CDC-081: CMY-2, TEM-1B): 1.6
Times-change in DETECT score, with clavulanic acid ([6]; isolate CDC-085: CMY-2): 1.3
Times-change in DETECT score, with clavulanic acid ([6]; isolate CDC-086: CTX-M-14, TEM-1B): 10.7
Times-change in DETECT score, with clavulanic acid ([6]; isolate CDC-089: CMY-2): 1.6
Times-change in DETECT score, with clavulanic acid ([6]; isolate D14: CTX-M-15): 5.4
Times-change in DETECT score, with clavulanic acid ([6]; isolate D129: CTX-M-2, TEM, SHV): 14.2
Times-change in DETECT score, with clavulanic acid ([6]; isolate D270: CTX-M-17): 12.9
Times-change in DETECT score, with clavulanic acid ([6]; isolate D304: CTX-M-55/57): 9.9
Times-change in DETECT score, with clavulanic acid ([6]; isolate D333: CTX-M-14/17/18): 10.3
Times-change in DETECT score, with clavulanic acid ([6]; isolate D362: CTX-M-15): 4.9
Times-change in DETECT score, with clavulanic acid ([6]; isolate D497: CTX-M-15): 3.2
Times-change in DETECT score, with clavulanic acid ([6]; isolate D500: CTX-M-27, CMY-2/130): 1.7
Times-change in DETECT score, with clavulanic acid ([6]; isolate SF141: CMY-2): 1.5
Times-change in DETECT score, with clavulanic acid ([6]; isolate SF148: CTX-M-14): 16.8
Times-change in DETECT score, with clavulanic acid ([6]; isolate SF207: CMY-2): 1.2
Times-change in DETECT score, with clavulanic acid ([6]; isolate SF325: CTX-M-14/17/18, OXA): 5.7
Times-change in DETECT score, with clavulanic acid ([6]; isolate SF410: CTX-M-15): 4.8
Times-change in DETECT score, with clavulanic acid ([6]; isolate SF468: CTX-M-14, TEM-1): 15.5
Times-change in DETECT score, with clavulanic acid ([6]; isolate SF473: CTX-M-14/17/18): 13.0
Times-change in DETECT score, with clavulanic acid ([6]; isolate SF487: CTX-M-14): 9.9
Times-change in DETECT score, with clavulanic acid ([6]; isolate SF674: CTX-M-15): 5.8
Times-change in DETECT score, with clavulanic acid ([7]; isolate B7: KPC-2, CTX-M-15, TEM-1B, SHV-11): 2.3
Times-change in DETECT score, with clavulanic acid ([7]; isolate B14: KPC-2, CTX-M-9, TEM-1A, SHV-11): 2.4
Times-change in DETECT score, with clavulanic acid ([7]; isolate B23: KPC-2, CTX-M-15, TEM-1B, SHV-11, OXA-1): 4.4
Times-change in DETECT score, with clavulanic acid ([7]; isolate FB13: CTX-M-15, CTX-M-8, TEM-1A, SHV-25/121, OXA-1): 15.3
Times-change in DETECT score, with clavulanic acid ([7]; isolate FB90: CTX-M-15, CTX-M-8, TEM-1A, SHV-25/121, OXA-1): 14.2
Times-change in DETECT score, with clavulanic acid ([7]; isolate HAF66: CTX-M-8, TEM-1, SHV-85): 10.5
Times-change in DETECT score, with clavulanic acid ([7]; isolate HAF102: CTX-M-8, TEM-1, SHV-76): 8.2
Times-change in DETECT score, with clavulanic acid ([7]; isolate HCD309: CTX-M-8, TEM-1, SHV-1): 5.9
Times-change in DETECT score, with clavulanic acid ([7]; isolate HCD405: CTX-M-15, SHV-25/121, OXA-1): 17.6
Times-change in DETECT score, with clavulanic acid ([7]; isolate HON257: CTX-M-2, TEM-15, SHV-25/121): 23.0
Times-change in DETECT score, with clavulanic acid ([7]; isolate SF681: CTX-M-15, TEM-1B, SHV-11, OXA-1): 3.8

C[C@H]1COc2c(N3CCN(C)CC3)c(F)cc3c(=O)c(C(=O)O)cn1c23 [levofloxacin]
resistance identified, number of isolates ([1]; CTX-M-producing bacteria): 8
resistance identified, percent of isolates ([1]; CTX-M-producing bacteria): 73%
resistance identified, number of isolates ([1]; bacteria lacking CTX-Ms): 13
resistance identified, percent of isolates ([1]; bacteria lacking CTX-Ms): 14%

O=C1CN(/N=C/c2ccc([N+](=O)[O-])o2)C(=O)N1 [nitrofurantoin]
resistance identified, number of isolates ([1]; CTX-M-producing bacteria): 1
resistance identified, percent of isolates ([1]; CTX-M-producing bacteria): 10%
resistance identified, number of isolates ([1]; bacteria lacking CTX-Ms): 2
resistance identified, percent of isolates ([1]; bacteria lacking CTX-Ms): 2%

CN(C)c1cc(NC(=O)CNC(C)(C)C)c(O)c2c1C[C@H]1C[C@H]3[C@H](N(C)C)C(O)=C(C(N)=O)C(=O)[C@@]3(O)C(O)=C1C2=O [tigecycline]
resistance in the isolates (in words) [1]: no tigecycline-resistant isolates were identified

NCC[C@H](O)C(=O)N[C@@H]1C[C@H](N)[C@@H](O[C@H]2O[C@H](CN)[C@@H](O)[C@H](O)[C@H]2O)[C@H](O)[C@H]1O[C@H]1O[C@H](CO)[C@@H](O)[C@H](N)[C@H]1O [amikacin]
resistance identified, number of isolates ([1]; CTX-M-producing bacteria): one

gentamicin
resistance identified, number of isolates ([1]; CTX-M-producing bacteria): 5
resistance identified, percent of isolates ([1]; CTX-M-producing bacteria): 45%
resistance identified, number of isolates ([1]; bacteria lacking CTX-Ms): 7
resistance identified, percent of isolates ([1]; bacteria lacking CTX-Ms): 7%

trimethoprim/sulfamethoxazole
resistance identified, number of isolates ([1]; CTX-M-producing bacteria): 8
resistance identified, percent of isolates ([1]; CTX-M-producing bacteria): 73%
resistance identified, number of isolates ([1]; bacteria lacking CTX-Ms): 21
resistance identified, percent of isolates ([1]; bacteria lacking CTX-Ms): 22%
